Test results: ChEMBL document CHEMBL3044649, “Zn(OTf)2-catalyzed three component, one-pot cyclocondensation reaction of some new octahydroquinazolinone derivatives and access their bio-potential” (2012)
Values after ≈ are worked out from the molar mass of the structure shown.

Tested on: Aspergillus fumigatus
Experiment: Antimicrobial activity against Aspergillus fumigatus MTCC 3008 after 24 to 48 hr by broth microdilution method
Type: functional

`O=C1CCCC2=C1C(c1cc3ccccc3[nH]c1=S)NC(=S)N2` (centres undefined) was tested. Which MIC did it give?
Its MIC is over 1000 µg/mL.

`Cc1ccc2[nH]c(=O)c(C3NC(=O)NC4=C3C(=O)CC(C)(C)C4)cc2c1` (centres undefined) was tested. Which MIC did it give?
The MIC was 1000 µg/mL (≈ 2850 µM).

How did the MIC turn out when `CC1(C)CC(=O)C2=C(C1)NC(=S)NC2c1cc2ccccc2[nH]c1=S` (centres undefined) was run?
Its MIC is 500 µg/mL (≈ 1350 µM).

`CC1(C)CC(=O)C2=C(C1)NC(=S)NC2c1cc2cc(Cl)ccc2[nH]c1=O` (centres undefined) was tested. Which MIC did it give?
The MIC was 1000 µg/mL (≈ 2580 µM).

For `O=C1CCCC2=C1C(c1cc3cc(Cl)ccc3[nH]c1=O)NC(=S)N2` (centres undefined), which MIC is on record?
The MIC was 1000 µg/mL (≈ 2780 µM).

For `O=C1NC2=C(C(=O)CCC2)C(c2cc3ccccc3[nH]c2=S)N1` (centres undefined), which MIC is on record?
Its MIC is 500 µg/mL (≈ 1540 µM).

Which MIC does the source give for `Cc1ccc2[nH]c(=O)c(C3NC(=S)N(c4ccccc4)C4=C3C(=O)CCC4)cc2c1` (centres undefined) here?
Its MIC is 500 µg/mL (≈ 1200 µM).

`CC1(C)CC(=O)C2=C(C1)NC(=O)NC2c1cc2cc(Cl)ccc2[nH]c1=O` (centres undefined) was tested. Which MIC did it give?
Its MIC is over 1000 µg/mL.

Tested on: Escherichia coli
Experiment: Antimicrobial activity against Escherichia coli MTCC 443 after 24 to 48 hr by broth microdilution method
Type: functional

How did the MIC turn out when `O=C1CCCC2=C1C(c1cc3ccccc3[nH]c1=S)NC(=S)N2` (centres undefined) was run?
Its MIC is 250 µg/mL (≈ 732 µM).

For `Cc1ccc2[nH]c(=O)c(C3NC(=O)NC4=C3C(=O)CC(C)(C)C4)cc2c1` (centres undefined), which MIC is on record?
Its MIC is 100 µg/mL (≈ 285 µM).

For `CC1(C)CC(=O)C2=C(C1)NC(=S)NC2c1cc2ccccc2[nH]c1=S` (centres undefined), which MIC is on record?
Its MIC is 100 µg/mL (≈ 271 µM).

With `CC1(C)CC(=O)C2=C(C1)NC(=S)NC2c1cc2cc(Cl)ccc2[nH]c1=O` (centres undefined) as the molecule, how does the MIC read?
The MIC was 125 µg/mL (≈ 322 µM).

`O=C1CCCC2=C1C(c1cc3cc(Cl)ccc3[nH]c1=O)NC(=S)N2` (centres undefined) was tested. Which MIC did it give?
The MIC was 100 µg/mL (≈ 278 µM).

Which MIC does the source give for `O=C1NC2=C(C(=O)CCC2)C(c2cc3ccccc3[nH]c2=S)N1` (centres undefined) here?
The MIC was 500 µg/mL (≈ 1540 µM).

`Cc1ccc2[nH]c(=O)c(C3NC(=S)N(c4ccccc4)C4=C3C(=O)CCC4)cc2c1` (centres undefined) was tested. Which MIC did it give?
Its MIC is 500 µg/mL (≈ 1200 µM).

With `CC1(C)CC(=O)C2=C(C1)NC(=O)NC2c1cc2cc(Cl)ccc2[nH]c1=O` (centres undefined) as the molecule, how does the MIC read?
Its MIC is 100 µg/mL (≈ 269 µM).

Tested on: Vibrio cholerae
Experiment: Antimicrobial activity against Vibrio cholerae MTCC 3906 after 24 to 48 hr by broth microdilution method
Type: functional

How did the MIC turn out when `O=C1CCCC2=C1C(c1cc3ccccc3[nH]c1=S)NC(=S)N2` (centres undefined) was run?
Its MIC is 250 µg/mL (≈ 732 µM).

Which MIC does the source give for `Cc1ccc2[nH]c(=O)c(C3NC(=O)NC4=C3C(=O)CC(C)(C)C4)cc2c1` (centres undefined) here?
Its MIC is 1000 µg/mL (≈ 2850 µM).

`CC1(C)CC(=O)C2=C(C1)NC(=S)NC2c1cc2ccccc2[nH]c1=S` (centres undefined) was tested. Which MIC did it give?
The MIC was 250 µg/mL (≈ 677 µM).

How did the MIC turn out when `CC1(C)CC(=O)C2=C(C1)NC(=S)NC2c1cc2cc(Cl)ccc2[nH]c1=O` (centres undefined) was run?
Its MIC is 50 µg/mL (≈ 129 µM).

With `O=C1CCCC2=C1C(c1cc3cc(Cl)ccc3[nH]c1=O)NC(=S)N2` (centres undefined) as the molecule, how does the MIC read?
The MIC was 250 µg/mL (≈ 695 µM).

`O=C1NC2=C(C(=O)CCC2)C(c2cc3ccccc3[nH]c2=S)N1` (centres undefined) was tested. Which MIC did it give?
Its MIC is 500 µg/mL (≈ 1540 µM).

Which MIC does the source give for `Cc1ccc2[nH]c(=O)c(C3NC(=S)N(c4ccccc4)C4=C3C(=O)CCC4)cc2c1` (centres undefined) here?
The MIC was 500 µg/mL (≈ 1200 µM).

With `CC1(C)CC(=O)C2=C(C1)NC(=O)NC2c1cc2cc(Cl)ccc2[nH]c1=O` (centres undefined) as the molecule, how does the MIC read?
Its MIC is 500 µg/mL (≈ 1340 µM).

Tested on: Clostridium tetani
Experiment: Antimicrobial activity against Clostridium tetani MTCC 449 after 24 to 48 hr by broth microdilution method
Type: functional

`O=C1CCCC2=C1C(c1cc3ccccc3[nH]c1=S)NC(=S)N2` (centres undefined) was tested. Which MIC did it give?
Its MIC is 250 µg/mL (≈ 732 µM).

`Cc1ccc2[nH]c(=O)c(C3NC(=O)NC4=C3C(=O)CC(C)(C)C4)cc2c1` (centres undefined) was tested. Which MIC did it give?
The MIC was 100 µg/mL (≈ 285 µM).

With `CC1(C)CC(=O)C2=C(C1)NC(=S)NC2c1cc2ccccc2[nH]c1=S` (centres undefined) as the molecule, how does the MIC read?
Its MIC is 200 µg/mL (≈ 541 µM).

`CC1(C)CC(=O)C2=C(C1)NC(=S)NC2c1cc2cc(Cl)ccc2[nH]c1=O` (centres undefined) was tested. Which MIC did it give?
The MIC was 250 µg/mL (≈ 645 µM).

Which MIC does the source give for `O=C1CCCC2=C1C(c1cc3cc(Cl)ccc3[nH]c1=O)NC(=S)N2` (centres undefined) here?
The MIC was 250 µg/mL (≈ 695 µM).

Which MIC does the source give for `O=C1NC2=C(C(=O)CCC2)C(c2cc3ccccc3[nH]c2=S)N1` (centres undefined) here?
The MIC was 500 µg/mL (≈ 1540 µM).

With `Cc1ccc2[nH]c(=O)c(C3NC(=S)N(c4ccccc4)C4=C3C(=O)CCC4)cc2c1` (centres undefined) as the molecule, how does the MIC read?
Its MIC is 250 µg/mL (≈ 602 µM).

Which MIC does the source give for `CC1(C)CC(=O)C2=C(C1)NC(=O)NC2c1cc2cc(Cl)ccc2[nH]c1=O` (centres undefined) here?
Its MIC is 100 µg/mL (≈ 269 µM).

Tested on: Candida albicans
Experiment: Antimicrobial activity against Candida albicans MTCC 227 after 24 to 48 hr by broth microdilution method
Type: functional

How did the MIC turn out when `O=C1CCCC2=C1C(c1cc3ccccc3[nH]c1=S)NC(=S)N2` (centres undefined) was run?
The MIC was 250 µg/mL (≈ 732 µM).

With `Cc1ccc2[nH]c(=O)c(C3NC(=O)NC4=C3C(=O)CC(C)(C)C4)cc2c1` (centres undefined) as the molecule, how does the MIC read?
Its MIC is 500 µg/mL (≈ 1420 µM).

For `CC1(C)CC(=O)C2=C(C1)NC(=S)NC2c1cc2ccccc2[nH]c1=S` (centres undefined), which MIC is on record?
Its MIC is 250 µg/mL (≈ 677 µM).

With `CC1(C)CC(=O)C2=C(C1)NC(=S)NC2c1cc2cc(Cl)ccc2[nH]c1=O` (centres undefined) as the molecule, how does the MIC read?
The MIC was 500 µg/mL (≈ 1290 µM).

With `O=C1CCCC2=C1C(c1cc3cc(Cl)ccc3[nH]c1=O)NC(=S)N2` (centres undefined) as the molecule, how does the MIC read?
The MIC was 500 µg/mL (≈ 1390 µM).

`O=C1NC2=C(C(=O)CCC2)C(c2cc3ccccc3[nH]c2=S)N1` (centres undefined) was tested. Which MIC did it give?
The MIC was 1000 µg/mL (≈ 3070 µM).

`Cc1ccc2[nH]c(=O)c(C3NC(=S)N(c4ccccc4)C4=C3C(=O)CCC4)cc2c1` (centres undefined) was tested. Which MIC did it give?
The MIC was 1000 µg/mL (≈ 2410 µM).

Which MIC does the source give for `CC1(C)CC(=O)C2=C(C1)NC(=O)NC2c1cc2cc(Cl)ccc2[nH]c1=O` (centres undefined) here?
Its MIC is 500 µg/mL (≈ 1340 µM).

Tested on: Bacillus subtilis
Experiment: Antimicrobial activity against Bacillus subtilis MTCC 441 after 24 to 48 hr by broth microdilution method
Type: functional

How did the MIC turn out when `O=C1CCCC2=C1C(c1cc3ccccc3[nH]c1=S)NC(=S)N2` (centres undefined) was run?
Its MIC is 250 µg/mL (≈ 732 µM).

Which MIC does the source give for `Cc1ccc2[nH]c(=O)c(C3NC(=O)NC4=C3C(=O)CC(C)(C)C4)cc2c1` (centres undefined) here?
Its MIC is 100 µg/mL (≈ 285 µM).

Which MIC does the source give for `CC1(C)CC(=O)C2=C(C1)NC(=S)NC2c1cc2ccccc2[nH]c1=S` (centres undefined) here?
The MIC was 250 µg/mL (≈ 677 µM).

For `CC1(C)CC(=O)C2=C(C1)NC(=S)NC2c1cc2cc(Cl)ccc2[nH]c1=O` (centres undefined), which MIC is on record?
The MIC was 50 µg/mL (≈ 129 µM).

With `O=C1CCCC2=C1C(c1cc3cc(Cl)ccc3[nH]c1=O)NC(=S)N2` (centres undefined) as the molecule, how does the MIC read?
The MIC was 250 µg/mL (≈ 695 µM).

`O=C1NC2=C(C(=O)CCC2)C(c2cc3ccccc3[nH]c2=S)N1` (centres undefined) was tested. Which MIC did it give?
The MIC was 500 µg/mL (≈ 1540 µM).

`Cc1ccc2[nH]c(=O)c(C3NC(=S)N(c4ccccc4)C4=C3C(=O)CCC4)cc2c1` (centres undefined) was tested. Which MIC did it give?
Its MIC is 500 µg/mL (≈ 1200 µM).

Which MIC does the source give for `CC1(C)CC(=O)C2=C(C1)NC(=O)NC2c1cc2cc(Cl)ccc2[nH]c1=O` (centres undefined) here?
The MIC was 200 µg/mL (≈ 538 µM).

Tested on: Salmonella typhi
Experiment: Antimicrobial activity against Salmonella enterica subsp. enterica serovar Typhi MTCC 98 after 24 to 48 hr by broth microdilution method
Type: functional

How did the MIC turn out when `O=C1CCCC2=C1C(c1cc3ccccc3[nH]c1=S)NC(=S)N2` (centres undefined) was run?
Its MIC is 200 µg/mL (≈ 586 µM).

`Cc1ccc2[nH]c(=O)c(C3NC(=O)NC4=C3C(=O)CC(C)(C)C4)cc2c1` (centres undefined) was tested. Which MIC did it give?
Its MIC is 250 µg/mL (≈ 711 µM).

How did the MIC turn out when `CC1(C)CC(=O)C2=C(C1)NC(=S)NC2c1cc2ccccc2[nH]c1=S` (centres undefined) was run?
Its MIC is 100 µg/mL (≈ 271 µM).

Which MIC does the source give for `CC1(C)CC(=O)C2=C(C1)NC(=S)NC2c1cc2cc(Cl)ccc2[nH]c1=O` (centres undefined) here?
The MIC was 25 µg/mL (≈ 64.5 µM).

`O=C1CCCC2=C1C(c1cc3cc(Cl)ccc3[nH]c1=O)NC(=S)N2` (centres undefined) was tested. Which MIC did it give?
The MIC was 200 µg/mL (≈ 556 µM).

For `O=C1NC2=C(C(=O)CCC2)C(c2cc3ccccc3[nH]c2=S)N1` (centres undefined), which MIC is on record?
The MIC was 200 µg/mL (≈ 615 µM).

How did the MIC turn out when `Cc1ccc2[nH]c(=O)c(C3NC(=S)N(c4ccccc4)C4=C3C(=O)CCC4)cc2c1` (centres undefined) was run?
The MIC was 250 µg/mL (≈ 602 µM).

How did the MIC turn out when `CC1(C)CC(=O)C2=C(C1)NC(=O)NC2c1cc2cc(Cl)ccc2[nH]c1=O` (centres undefined) was run?
Its MIC is 200 µg/mL (≈ 538 µM).

Tested on: Streptococcus pneumoniae
Experiment: Antimicrobial activity against Streptococcus pneumoniae MTCC 1936 after 24 to 48 hr by broth microdilution method
Type: functional

How did the MIC turn out when `O=C1CCCC2=C1C(c1cc3ccccc3[nH]c1=S)NC(=S)N2` (centres undefined) was run?
Its MIC is 500 µg/mL (≈ 1460 µM).

For `Cc1ccc2[nH]c(=O)c(C3NC(=O)NC4=C3C(=O)CC(C)(C)C4)cc2c1` (centres undefined), which MIC is on record?
The MIC was 100 µg/mL (≈ 285 µM).

With `CC1(C)CC(=O)C2=C(C1)NC(=S)NC2c1cc2ccccc2[nH]c1=S` (centres undefined) as the molecule, how does the MIC read?
The MIC was 500 µg/mL (≈ 1350 µM).

How did the MIC turn out when `CC1(C)CC(=O)C2=C(C1)NC(=S)NC2c1cc2cc(Cl)ccc2[nH]c1=O` (centres undefined) was run?
The MIC was 50 µg/mL (≈ 129 µM).

How did the MIC turn out when `O=C1CCCC2=C1C(c1cc3cc(Cl)ccc3[nH]c1=O)NC(=S)N2` (centres undefined) was run?
Its MIC is 250 µg/mL (≈ 695 µM).

How did the MIC turn out when `O=C1NC2=C(C(=O)CCC2)C(c2cc3ccccc3[nH]c2=S)N1` (centres undefined) was run?
The MIC was 500 µg/mL (≈ 1540 µM).

`Cc1ccc2[nH]c(=O)c(C3NC(=S)N(c4ccccc4)C4=C3C(=O)CCC4)cc2c1` (centres undefined) was tested. Which MIC did it give?
The MIC was 500 µg/mL (≈ 1200 µM).

For `CC1(C)CC(=O)C2=C(C1)NC(=O)NC2c1cc2cc(Cl)ccc2[nH]c1=O` (centres undefined), which MIC is on record?
Its MIC is 500 µg/mL (≈ 1340 µM).
